Laboratory results reported in patent US20220008411A1, “TOLL-LIKE RECEPTOR 7 OR 8 AGONIST-CHOLESTEROL COMPLEX AND METHOD OF PREPARING SAME” (RESEARCH & BUSINESS FOUNDATION SUNGKYUNKWAN UNIVERSITY, priority 2019, published 2022).

Legend:
[1] = test system: bone marrow-derived dendritic cells (BMDCs) or bone marrow-derived macrophages (BMDMs); assay: activation of immune cells, cleavable vs uncleavable complex (ELISA); format: cell-based; settings: given as liposome, 24 hours
Protocol: Degree of activation of immune cells was confirmed using the cholesterol-resiquimod complex, in which cholesterol is not cleaved at a specific point of time as a control. […] In addition, a liquid culture was obtained, centrifuged at 490 g for 5 minutes, thereby obtaining only a supernatant, and ELISA was carried out using a BD OptEIA™ kit.

[2] = test system: carboxylesterase; settings: nanoliposome, 30 units of carboxylesterase, 37° C.
[3] = toxicity in vivo (serum cytokine, body weight); parameters: species or system C57BL/6 mouse; settings: 25 μg/100 μL subcutaneous
Protocol: In addition, the collected blood was centrifuged (4° C., 13,000 rpm, 20 min) to separate serum and blood cells, and a cytokine amount was measured through ELISA using the serum.

[4] = test system: B16-OVA melanoma cell line; assay: anticancer effect with OVA antigen in B16-OVA melanoma model; settings: intratumoral injection on day 0, 3, 6 and 9
Protocol: More specifically, 5×10^5 cells of a B16-OVA cell line were subcutaneously injected into the right flank of a C57BL/6 mouse, and the time when a tumor size reached approximately 50 mm^3 was set to day 0, each of phosphate-buffered saline (control), an OVA antigen (OVA), resiquimod+OVA antigen (R848+OVA), and a nanoliposome including a cholesterol-resiquimod complex, +OVA antigen (Lipo(Chol-R848)+OVA) were administered into a mouse through intratumoral injection on day 0, 3, 6 and 9. 10 μg of the OVA antigen was administered, 25 μg of resiquimod was administered, and 25 μg (based on resiquimod) of the nanoliposome including the cholesterol-resiquimod complex was administered. In addition, a mouse survival rate and a cancer size were measured.

Molecule: CCOCc1nc2c(NC(=O)OC3CCC4(C)C(=CCC5C4CCC4(C)C(C(C)CCCC(C)C)CCC54)C3)nc3ccccc3c2n1CC(C)(C)O (stereo not drawn) [Chol-R848, cholesterol-conjugated resiquimod]
- activation of immune cells [1]: effectively activates immune cells
- cholesterol cleavage by enzyme [2]: cleaved

Molecule: CCOCc1nc2c(N)nc3ccccc3c2n1CC(C)(C)O [resiquimod]
- body weight [3]: dramatically changing a body weight
- cytokine amount in serum [3]: rapidly increased in serum at an early stage

B1: OVA antigen: ovalbumin (OVA) antigen (protein, UniProt P01012 2-386, looked up)
Ovalbumin: GSIGAASMEFCFDVFKELKVHHANENIFYCPIAIMSALAMVYLGAKDSTRTQINKVVRFDKLPGFGDSIEAQCGTSVNVHSSLRDILNQITKPNDVYSFSLASRLYAEERYPILPEYLQCVKELYRGGLEPINFQTAADQARELINSWVESQTNGIIRNVLQPSSVDSQTAMVLVNAIVFKGLWEKAFKDEDTQAMPFRVTEQESKPVQMMYQIGLFRVASMASEKMKILELPFASGTMSMLVLLPDEVSGLEQLESIINFEKLTEWTSSNVMEERKIKVYLPRMKMEEKYNLTSVLMAMGITDVFSSSANLSGISSAESLKISQAVHAAHAEINEAGREVVGSAEAGVDAASVSEEFRADHPFLFCIKHIATNAVLFFGRCVSP
- mouse survival [4]: no mouse surviving three weeks or more
- cancer size ([4]; 10 μg OVA, 25 μg resiquimod basis): dramatically increased
